Results from US12098159B2, “Solid forms of substituted benzoxaborole and compositions thereof” (5Metis, Inc., priority 2018, dated 2024).

Legend:
Assay type in all cases: physicochemical
[1] = TGA weight loss (ramp, cycle and isothermal TGA)
Procedure: TGA data were collected using a TA Q5000/5500 TGA from TA Instruments. DSC was performed using a TA Q2000/2500 DSC from TA Instruments.
(§1) This difference was postulated to be caused by preferred orientation, since the morphology of Type A starting material was rod-like. A two-stage weight loss of 0.5% up to 100° C. and 10.0% from 100° C. to 160° C. was observed on the TGA curve. […] (onset temperature). The DVS isotherm plot of Type A was collected at 25° C. between 0 and 95% RH.
The results of VT-XRPD and heating experiment preliminarily confirmed the dehydration reaction. However, the theoretical weight loss of dehydration was calculated to be 5.4%, which was not consistent with the observed TGA weight loss of 10.0%. To further explain the difference on weight loss, the TGA data of Type A were re-visited. The results in FIG. 23B indicate that there might be 2 events involved in the TGA weight loss from 100° C. to 160° C., one of which is the dehydration of (I) (the theoretical weight loss of dehydration was close to the TGA weight loss up to 128° C.), while the other may be the complete decomposition or sublimation of the dehydrated product (if it's partial decomposition, the sample after heated should not convert back to (I) upon exposure to air).
Cycle TGA was conducted by heating Type A to 160° C. and cooling to 50° C. (with N2 purge, without exposure to air), followed by re-heating to 160° C. […] Isothermal TGA was conducted by heating Type A to 160° C. and isothermal at 160° C. for 0.5 hr. A weight loss of >20% was observed during the isothermal stage FIG. 24B, which was postulated to be decomposition/sublimation.

[2] = VT-XRPD and heating experiments: dehydration of (I) to (II) and conversion back
Procedure: The compound of formula (II) can be prepared by heating the compound of formula (I) under vacuum or by exposing the compound of formula (I) to dehydrating conditions.
To confirm this hypothesis, variable-temperature XRPD (VT-XRPD) and heating experiments were performed. […] The ^1H NMR results in FIG. 22B show no difference before and after heating, likely because the dehydrated product converted back to (I) after being exposed to residual water in DMSO-d6. TGA was also performed by heating (I) to 160° C. and cooling to room temperature, followed by re-heating to 160° C. after placed being placed under ambient conditions overnight. […] All the results were consistent with the hypothesis that dehydration and hydration reactions would occur during heating and exposure to air, respectively.

[3] = Dynamic vapor sorption (DVS) of Type A
Text: After preparation by the method described in Example 1, the starting material was characterized by X-ray powder diffraction (XRPD), thermo gravimetric analysis (TGA), differential scanning calorimetry (DSC), dynamic vapor sorption (DVS), high performance liquid chromatography (HPLC), and ^1H solution nuclear magnetic resonance (^1H NMR).
as §1

SMILES	TGA weight loss ([1]; from 100° C. to 160° C.) [%]	cycle TGA weight loss on the re-heating curve ([1]; heated to 160° C., cooled to 50° C. with N2 purge, re-heated, up to 150° C.) [%]	isothermal TGA weight loss ([1]; isothermal at 160° C. for 0.5 hr) [%]	Wt Loss on TGA (%, up to 100° C.) ([1]; up to 100° C.) [%]	XRPD after heating experiment ([2]; heated to 160° C. and cooled to RT, exposed to air)	water up-take (DVS) ([3]; 25° C./80% RH) [%]	form change after the DVS test (XRPD) ([3]; DVS at 25° C. between 0 and 95% RH)	XRPD pattern of dehydrated product after exposure to air ([2]; after heating to 140° C. with N2 purge, exposed in air for 3 hrs)	behaviour on exposure to water ([2]; exposed to water)
OB1OCc2cc(Cl)ccc21 [(I), 5-chlorobenzo[c][1,2]oxaborol-1(3H)-ol]	10.0	1.3	> 20	0.5	partial conversion to the dehydrated product (II)	0.1	no form change was observed		
Clc1ccc2c(c1)COB2OB1OCc2cc(Cl)ccc21 [(II), 1,1′-oxybis(5-chloro-1,3-dihydrobenzo[c][1,2]oxaborole)]								converted back to Type A	reverts to the compound of formula (I)
